Results published in the Deep4Chem optical property database.

Assay: solvent given as SMILES

Q: With `CCC1(CC)c2ccccc2-c2c1c1c(c3c2C(CC)(CC)c2cc(N(c4ccccc4)c4ccccc4)ccc2-3)C(CC)(CC)c2cc(N(c3ccccc3)c3ccccc3)ccc2-1` as the compound, how does the fluorescence lifetime (in C1CCOC1) read?
A: 1.9 ns

Q: Which fluorescence lifetime (in CC#N) does the source give for `COc1ccc(C#Cc2ccccc2C#Cc2ccc(OC)cc2)cc1` here?
A: 2.14 ns

Q: With `CCCCCCN1C(=O)c2cc(-c3ccc(-n4c5ccccc5c5ccccc54)cc3)c(-c3ccc(-n4c5ccccc5c5ccccc54)cc3)cc2C1=O` as the compound, how does the fluorescence lifetime (in ClC(Cl)Cl) read?
A: 11.2 ns

Q: What about the fluorescence lifetime (in c1ccc2c(c1)c1ccccc1n2-c1ccc(-c2ccc(-n3c4ccccc4c4ccccc43)cc2)cc1) of the same compound?
A: 10 ns

Q: What does the source list for `NCc1ccc2ccc3cccc4ccc1c2c34`?
A: fluorescence lifetime (in CC#N): 232 ns; fluorescence lifetime (in CO): 119 ns; fluorescence lifetime (in ClC(Cl)Cl): 38 ns

Q: Which fluorescence lifetime (in O) does the source give for `O=C(O)CCCCCn1c2ccccc2c(=O)c2cc(S(=O)(=O)O)ccc21` here?
A: 13 ns

Q: For `N#C/C(=C\c1ccc(C=C(c2ccccc2)c2ccccc2)cc1)c1ccccc1`, which fluorescence lifetime (in C1CCOC1) is on record?
A: 1 ns

Q: Which fluorescence lifetime (in CO) does the source give for `CC1(C)C(/C=C/C2=C(Oc3ccc(CCN=C=S)cc3Br)C(=C/C=C3/N(CCCS(=O)(=O)[O-])c4ccccc4C3(C)C)/CCC2)=[N+](CCCS(=O)(=O)[O-])c2ccccc21` here?
A: 0.912 ns

Q: With `CCN(CC)c1ccc2cc3c([o+]c2c1)/C(=C/Nc1ccccc1)CCC3` as the compound, how does the fluorescence lifetime (in CCO) read?
A: 4.05 ns

Q: And the fluorescence lifetime (in ClC(Cl)Cl)?
A: 2.65 ns

Q: What about the fluorescence lifetime (in ClCCl) of the same compound?
A: 4.97 ns

Q: For `COc1ccc2c(c1)CCC1=C(C#Cc3cc4ccccc4c4ccccc34)O[B-](F)(F)[O+]=C12`, which fluorescence lifetime (in ClCCl) is on record?
A: 1.33 ns

Q: With `O=C1CCCC2=C1CC1=C(CCCC1=O)N2NC(=O)c1ccc(O)cc1` as the compound, how does the fluorescence lifetime (in CC#N) read?
A: 6.2 ns

Q: What about the fluorescence lifetime (in CC(C)=O) of the same compound?
A: 5.6 ns

Q: And the fluorescence lifetime (in CCCCCO)?
A: 6.5 ns

Q: And the fluorescence lifetime (in CO)?
A: 4.8 ns

Q: What about the fluorescence lifetime (in ClC(Cl)Cl) of the same compound?
A: 8.2 ns

Q: What about the fluorescence lifetime (in ClCCl) of the same compound?
A: 5.4 ns

Q: Which fluorescence lifetime (in ClC(Cl)Cl) does the source give for `CCCCCCN1C(=O)c2cccc3cc(/N=C\c4cn(C)c5ccccc45)cc(c23)C1=O` here?
A: 11.4 ns

Q: Which fluorescence lifetime (in Cc1ccccc1) does the source give for `CC1=[N+]2C(=C(c3ccc(C#N)cc3)c3ccc(C)n3[B-]2(F)F)C=C1` here?
A: 0.55 ns

Q: What does the source list for `CN(C)c1ccc(/C=C/c2cc[n+](CCCOCC(COCCC[n+]3ccc(/C=C/c4ccc(N(C)C)cc4)cc3)(COCCC[n+]3ccc(/C=C/c4ccc(N(C)C)cc4)cc3)COCCC[n+]3ccc(/C=C/c4ccc(N(C)C)cc4)cc3)cc2)cc1`?
A: fluorescence lifetime (in CCCCCCCCO): 0.48 ns; fluorescence lifetime (in CCCO): 0.18 ns; fluorescence lifetime (in CCO): 0.11 ns; fluorescence lifetime (in CO): 0.09 ns; fluorescence lifetime (in ClC(Cl)Cl): 0.46 ns; fluorescence lifetime (in ClCCl): 0.31 ns

Q: With `c1ccc(-n2cccc2)cc1` as the compound, how does the fluorescence lifetime (in CC#N) read?
A: 3.6 ns

Q: And the fluorescence lifetime (in CCCCCC)?
A: 3.5 ns

Q: Which fluorescence lifetime (in CC#N) does the source give for `c1ccc(-c2nc3c(c4c2-c2ccccc2CC4)-c2ccccc2CC3)cc1` here?
A: 1.39 ns

Q: What about the fluorescence lifetime (in CCCCCC) of the same compound?
A: 0.26 ns

Q: And the fluorescence lifetime (in CO)?
A: 0.29 ns

Q: What about the fluorescence lifetime (in CS(C)=O) of the same compound?
A: 0.51 ns

Q: Which fluorescence lifetime (in ClC(Cl)Cl) does the source give for `CC(C)(C)c1ccc(Oc2cc3c4c(cc(Oc5ccc(C(C)(C)C)cc5)c5c6c(Oc7ccc(C(C)(C)C)cc7)cc7c8c(cc(Oc9ccc(C(C)(C)C)cc9)c(c2c45)c86)C(=O)N(Cc2ccccc2)C7=O)C(=O)N(Cc2ccccc2)C3=O)cc1` here?
A: 6.3 ns

Q: With `c1ccc([C@]23CC[C@H](CC2)N=N3)cc1` as the compound, how does the fluorescence lifetime (in CC#N) read?
A: 2.5 ns

Q: For `O=S(=O)([O-])CCC[n+]1c2ccccc2cc2ccccc21`, which fluorescence lifetime (in O) is on record?
A: 31.2 ns

Q: With `O=C(O)c1cccc2c(=O)c3ccccc3[nH]c12` as the compound, how does the fluorescence lifetime (in O) read?
A: 3.1 ns

Q: For `CN(C)c1ccc(C#Cc2cc3ccc4cc(C#Cc5ccc(N(C)C)cc5)cc5ccc(c2)c3c45)cc1`, which fluorescence lifetime (in Cc1ccccc1) is on record?
A: 60 ns

Q: For `CNCCCC1c2ccccc2C=Cc2ccccc21`, which fluorescence lifetime (in CC#N) is on record?
A: 2.41 ns

Q: And the fluorescence lifetime (in CO)?
A: 2.38 ns

Q: What about the fluorescence lifetime (in O) of the same compound?
A: 2.56 ns

Q: For `N#Cc1cc2ccc([O-])cc2oc1=O`, which fluorescence lifetime (in O) is on record?
A: 3.96 ns

Q: What does the source list for `CC1=[N+]2C(=Cc3cccn3[B-]2(F)F)C=C1`?
A: fluorescence lifetime (in CCCCCC): 6.75 ns; fluorescence lifetime (in CO): 6.96 ns; fluorescence lifetime (in ClCCl): 6.2 ns

Q: Which fluorescence lifetime (in ClCCl) does the source give for `COc1ccc2oc(=N)c(C#N)cc2c1` here?
A: 1.6 ns

Q: For `CC(C)(C)c1cc2c3cc(C(C)(C)C)c(-c4cc5cc6c7cccc8cccc(c9cc(C(C)(C)C)cc(c5cc4C(C)(C)C)c96)c87)cc3cc3c4cccc5cccc(c(c1)c23)c54`, which fluorescence lifetime (in CC1CCCCC1) is on record?
A: 3.4 ns

Q: For `Cn1c2ccccc2c2c1c1ccccc1n2C`, which fluorescence lifetime (in CCCO) is on record?
A: 9 ns

Q: For `F[B-]1(F)n2c(cc3c4ccccc4c4ccccc4c32)-c2ccc3ccccc3[n+]21`, which fluorescence lifetime (in ClCCl) is on record?
A: 4.89 ns

Q: With `Cc1ccc(-c2ccc(/C=C/c3ccc(Cl)cc3)cn2)nc1` as the compound, how does the fluorescence lifetime (in CC#N) read?
A: 1.01 ns

Q: Which fluorescence lifetime (in CC#N) does the source give for `Cc1ccc2nc3[nH]c(=O)[nH]c(=O)c3nc2c1C` here?
A: 2.41 ns

Q: With `COc1ccc(N(c2ccc(OC)cc2)c2ccc(-c3ccc(-c4ccc(-c5ccc(-c6ccc(N(c7ccc(OC)cc7)c7ccc(OC)cc7)cc6)s5)c5nsnc45)s3)cc2)cc1` as the compound, how does the fluorescence lifetime (in ClC(Cl)Cl) read?
A: 4.9 ns

Q: With `c1ccc(/C(=C(\c2ccccc2)c2ccccc2-c2ccccc2)c2ccccc2-c2ccccc2)cc1` as the compound, how does the fluorescence lifetime (in C1CCOC1) read?
A: 4.7 ns

Q: Which fluorescence lifetime (in CCCO) does the source give for `CCOC(=O)c1ccc2c(c1)[nH]c1c3ccc(C(=O)OCC)cc3[nH]c21` here?
A: 4.75 ns

Q: With `COC(=O)C(NC(=O)OC(C)(C)C)c1ccc2oc(-c3cc(OC)c(OC)c(OC)c3)nc2c1` (centres undefined) as the compound, how does the fluorescence lifetime (in CC1CCCCC1) read?
A: 1.01 ns

Q: And the fluorescence lifetime (in CC#N)?
A: 1.2 ns

Q: What about the fluorescence lifetime (in CO) of the same compound?
A: 1.28 ns

Q: With `Cc1c(C2=[N+]3C(=Cc4c(C)c5ccccc5n4[B-]3(F)F)c3ccccc32)[nH]c2ccccc12` as the compound, how does the fluorescence lifetime (in ClCCl) read?
A: 1.22 ns

Q: Which fluorescence lifetime (in CC#N) does the source give for `Cc1cn(C(F)(F)F)c(=O)[nH]c1=O` here?
A: 0.0001 ns

Q: With `CC(C)(C)c1ccc(-c2c3cccc4c(-c5ccccc5)cc5c(-c6ccc(C(C)(C)C)cc6)c6cccc7c(-c8ccccc8)cc2c(c76)c5c43)cc1` as the compound, how does the fluorescence lifetime (in ClCCl) read?
A: 2.98 ns

Q: With `CC1(C)c2ccccc2N(c2ccccc2)c2ccc(-c3ccc(C(=O)c4ccc(-c5ccc6c(c5)C(C)(C)c5ccccc5N6c5ccccc5)cc4)cc3)cc21` as the compound, how does the fluorescence lifetime (in O=P(c1ccccc1)(c1ccccc1)c1ccccc1Oc1ccccc1P(=O)(c1ccccc1)c1ccccc1) read?
A: 1.87 ns

Q: Which results are given for `COc1c2ccccc2c(OC)c2c1c1c(C)ccc(OC)c1n2C`?
A: fluorescence lifetime (in C1CCCCC1): 17.6 ns; fluorescence lifetime (in CC#N): 24.2 ns; fluorescence lifetime (in CO): 21.5 ns; fluorescence lifetime (in ClCCl): 17.6 ns

Q: For `C=Cc1cc2ccccc2oc1=O`, which fluorescence lifetime (in CC#N) is on record?
A: 0.39 ns

Q: With `CC(C)(C)C#Cc1cc2c(C#CC(C)(C)C)c(C#CC(C)(C)C)c3cc(C#CC(C)(C)C)cc4c(C#CC(C)(C)C)c(C#CC(C)(C)C)c(c1)c2c34` as the compound, how does the fluorescence lifetime (in ClCCl) read?
A: 22.3 ns

Q: Which fluorescence lifetime (in C1CCCCC1) does the source give for `c1ccc(-c2nn(-c3ccccc3)c3nc4ccc(N(c5ccccc5)c5cccc6ccccc56)cc4cc23)cc1` here?
A: 11.3 ns

Q: And the fluorescence lifetime (in C1CCOC1)?
A: 15.5 ns

Q: What about the fluorescence lifetime (in CC#N) of the same compound?
A: 16.3 ns

Q: And the fluorescence lifetime (in CC(C)=O)?
A: 19.3 ns

Q: And the fluorescence lifetime (in CCCCCl)?
A: 14.9 ns

Q: What about the fluorescence lifetime (in CCCCOCCCC) of the same compound?
A: 12.9 ns

Q: And the fluorescence lifetime (in CN(C)C=O)?
A: 15.8 ns

Q: For `Cc1cc(C)c(B2c3cc(C)ccc3N3c4ccc(C)cc4B(c4c(C)cc(C)cc4C)c4cc(C)cc2c43)c(C)c1`, which fluorescence lifetime (in Cc1ccccc1-c1cccc(Oc2cc3c4c(c2)Oc2cc(-c5ccccc5C)ccc2B4c2ccc(-c4ccccc4C)cc2O3)c1) is on record?
A: 6.9 ns

Q: What does the source list for `CCC1(CC)c2cc(-c3ccc(C(C)(C)C)cc3)ccc2-c2ccc(-c3ccc4c(c3)C(CC)(CC)c3cc(-c5ccc6c(c5)C(CC)(CC)c5cc(-c7ccc(C(C)(C)C)cc7)ccc5-6)ccc3-4)cc21`?
A: fluorescence lifetime (in CCCCC): 0.65 ns; fluorescence lifetime (in CCCCCC): 0.62 ns; fluorescence lifetime (in CCCCCCC): 0.61 ns; fluorescence lifetime (in CCCCCCCC): 0.64 ns; fluorescence lifetime (in CCCCCCCCC): 0.62 ns; fluorescence lifetime (in CCCCCCCCCC): 0.64 ns; fluorescence lifetime (in CCCCCCCCCCCC): 0.64 ns; fluorescence lifetime (in CCCCCCCCCCCCC): 0.65 ns; fluorescence lifetime (in CCCCCCCCCCCCCCC): 0.64 ns; fluorescence lifetime (in CCCCCCCCCCCCCCCC): 0.63 ns; fluorescence lifetime (in CCCCCCCCCCO): 0.64 ns; fluorescence lifetime (in CCCCCCCCCO): 0.64 ns; fluorescence lifetime (in CCCCCCCCO): 0.63 ns; fluorescence lifetime (in CCCCCCCO): 0.64 ns; fluorescence lifetime (in CCCCCCO): 0.64 ns; fluorescence lifetime (in CCCCCO): 0.65 ns; fluorescence lifetime (in CCCCO): 0.64 ns; fluorescence lifetime (in CCCO): 0.65 ns; fluorescence lifetime (in CCO): 0.67 ns; fluorescence lifetime (in CO): 0.67 ns

Q: With `COc1ccc(-c2c3ccc([nH]3)c3nc(c(-c4ccc(C#N)cc4)c4ccc([nH]4)c4ccc([nH]4)c(-c4ccc(OC)cc4)c4ccc2o4)C=C3)cc1` as the compound, how does the fluorescence lifetime (in C1CCOC1) read?
A: 5.6 ns

Q: What about the fluorescence lifetime (in Cc1ccccc1) of the same compound?
A: 5.65 ns

Q: What about the fluorescence lifetime (in c1ccccc1) of the same compound?
A: 4.88 ns
